Results from patent US20100227921A1, “AMINO ACID AND PEPTIDE CARBAMATE PRODRUGS OF […] USES THEREOF” (SHIRE LLC, priority 2009, published 2010).
Values joined by “and” are separate entries in the source; they are usually repeats but may differ in a detail not shown here. Equal values may be shown once. Read-outs that look alike come from different tables or passages of the source. Marks after values point to notes of the source that are not given here.

Assay: Comparative bioavailability after oral administration to rats (plasma LC-MS-MS)
Type: in vivo
Experimental: Test substances, i.e., tapentadol or tapentadol valine carbamate were administered by oral gavage to groups of male Sprague Dawley rats.
Blood samples were taken at various times after administration and submitted to analysis for the parent drug and pro-drug using a validated LC-MS-MS assay. Pharmacokinetic parameters derived from the plasma analytical data were determined using Win Nonlin.

[1] = male rat, oral tapentadol valine carbamate 10 mg tapentadol free base equiv/kg, individual animals 6-10

For `CC[C@H](c1cccc(OC(=O)N[C@H](C(=O)O)C(C)C)c1)[C@H](C)CN(C)C` (racemic) [Tapentadol valine carbamate, 2-[3-(3-Dimethylamino-1-ethyl-2-methyl-propyl)-phenoxycarbonylamino]-3-methyl-butyric acid], which “Plasma concentration of tapentadol valine carbamate” value (“Plasma concentration” for short) (male rat, oral tapentadol valine carbamate 10 mg tapentadol free base equiv/kg, 1 h, individual animals 6-10) is on record?
The value was 73.8 ng/mL and 88.9 ng/mL and 83.1 ng/mL and 115 ng/mL.

What about the “Plasma concentration” value (male rat, oral tapentadol valine carbamate 10 mg tapentadol free base equiv/kg, 2 h, individual animals 6-10) of the same molecule?
Its value is 57.3 ng/mL and 106 ng/mL and 76.4 ng/mL and 86.6 ng/mL.

What about the “Plasma concentration” value (male rat, oral tapentadol valine carbamate 10 mg tapentadol free base equiv/kg, 3 h, individual animals 6-10) of the same molecule?
Its value is 76.7 ng/mL and 71.6 ng/mL and 74.8 ng/mL and 34.5 ng/mL and 86.4 ng/mL.

And the “Plasma concentration” value (male rat, oral tapentadol valine carbamate 10 mg tapentadol free base equiv/kg, 4 h, individual animals 6-10)?
Its value is 46.7 ng/mL and 47.0 ng/mL and 27.5 ng/mL and 51.6 ng/mL.

And the “Plasma concentration” value (male rat, oral tapentadol valine carbamate 10 mg tapentadol free base equiv/kg, 6 h, individual animals 6-10)?
The value was 19.9 ng/mL and 38.9 ng/mL and 22.7 ng/mL and 31.3 ng/mL.

And the “Plasma concentration” value (male rat, oral tapentadol valine carbamate 10 mg tapentadol free base equiv/kg, 8 h, individual animals 6-10)?
Its value is 32.7 ng/mL and 14.6 ng/mL and 26.5 ng/mL and 21.3 ng/mL and 25.4 ng/mL.

And the “Plasma concentration” value (male rat, oral tapentadol valine carbamate 10 mg tapentadol free base equiv/kg, 12 h, individual animals 6-10)?
The value was 9.49 ng/mL and 27.0 ng/mL and 11.4 ng/mL and 5.81 ng/mL and 14.5 ng/mL.

What about the “Plasma concentration” value (male rat, oral tapentadol valine carbamate 10 mg tapentadol free base equiv/kg, 24 h, individual animals 6-10) of the same molecule?
The value was 2.00 ng/mL and 0.915 ng/mL and 0.801 ng/mL and 0.656 ng/mL and 0.548 ng/mL.

And the “AUCt of tapentadol valine carbamate” value [1]?
The value was 599 ng·h/mL and 615 ng·h/mL and 413 ng·h/mL and 650 ng·h/mL.

What about the “Cmax of tapentadol valine carbamate” value [1] of the same molecule?
Its value is 79.5 ng/mL and 106 ng/mL and 83.1 ng/mL and 115 ng/mL.

And the “T>50%Cmax of tapentadol valine carbamate” value [1]?
Its value is 2.5 h (2×) and 3.5 h (2×) and 1.5 h.

What about the “Tmax of tapentadol valine carbamate” value [1] of the same molecule?
The value was 2 h.

And the “t½ of tapentadol valine carbamate” value [1]?
Its value is 3.83 h and 3.16 h and 3.60 h and 3.06 h.

And the “T>50%Cmax of tapentadol valine carbamate” value (male rat, oral tapentadol valine carbamate 10 mg tapentadol free base equiv/kg, median)?
Its value is 2.5^a h.

What about the “Peak plasma levels of tapentadol compared with those after administration of the parent drug” value (male rat, oral, 10 mg tapentadol free base equiv/kg) of the same molecule?
Its value is “somewhat lower”.

And the concentration at 0.5 h (male, Sprague Dawley, rat, plasma, po, 10 mg tapentadol free base equiv/kg, oral tapentadol valine carbamate 10 mg tapentadol free base equiv/kg, 0.5 h, mean, read-out: Plasma concentration of tapentadol valine carbamate)?
The concentration at 0.5 h was 83.8 ng/mL.

And the concentration at 1 h (male, Sprague Dawley, rat, plasma, po, 10 mg tapentadol free base equiv/kg, oral tapentadol valine carbamate 10 mg tapentadol free base equiv/kg, 1 h, mean, read-out: Plasma concentration of tapentadol valine carbamate)?
The concentration at 1 h was 86.6 ng/mL.

What about the concentration at 2 h (male, Sprague Dawley, rat, plasma, po, 10 mg tapentadol free base equiv/kg, oral tapentadol valine carbamate 10 mg tapentadol free base equiv/kg, 2 h, mean, read-out: Plasma concentration of tapentadol valine carbamate) of the same molecule?
Its concentration at 2 h is 82.4 ng/mL.

And the concentration at 3 h (male, Sprague Dawley, rat, plasma, po, 10 mg tapentadol free base equiv/kg, oral tapentadol valine carbamate 10 mg tapentadol free base equiv/kg, 3 h, mean, read-out: Plasma concentration of tapentadol valine carbamate)?
The concentration at 3 h was 68.8 ng/mL.

And the concentration at 4 h (male, Sprague Dawley, rat, plasma, po, 10 mg tapentadol free base equiv/kg, oral tapentadol valine carbamate 10 mg tapentadol free base equiv/kg, 4 h, mean, read-out: Plasma concentration of tapentadol valine carbamate)?
Its concentration at 4 h is 43.1 ng/mL.

What about the concentration at 6 h (male, Sprague Dawley, rat, plasma, po, 10 mg tapentadol free base equiv/kg, oral tapentadol valine carbamate 10 mg tapentadol free base equiv/kg, 6 h, mean, read-out: Plasma concentration of tapentadol valine carbamate) of the same molecule?
Its concentration at 6 h is 28.7 ng/mL.

What about the concentration at 8 h (male, Sprague Dawley, rat, plasma, po, 10 mg tapentadol free base equiv/kg, oral tapentadol valine carbamate 10 mg tapentadol free base equiv/kg, 8 h, mean, read-out: Plasma concentration of tapentadol valine carbamate) of the same molecule?
The concentration at 8 h was 24.1 ng/mL.

And the concentration at 12 h (male, Sprague Dawley, rat, plasma, po, 10 mg tapentadol free base equiv/kg, oral tapentadol valine carbamate 10 mg tapentadol free base equiv/kg, 12 h, mean, read-out: Plasma concentration of tapentadol valine carbamate)?
The concentration at 12 h was 13.6 ng/mL.

And the concentration at 24 h (male, Sprague Dawley, rat, plasma, po, 10 mg tapentadol free base equiv/kg, oral tapentadol valine carbamate 10 mg tapentadol free base equiv/kg, 24 h, mean)?
Its concentration at 24 h is 0.984 ng/mL.

And the half-life (male, Sprague Dawley, rat, plasma, po, 10 mg tapentadol free base equiv/kg, oral tapentadol valine carbamate 10 mg tapentadol free base equiv/kg, calculated as ln2/mean k, read-out: t½ of tapentadol valine carbamate (converted))?
The half-life was 3.54 h.

And the AUC(0-t) (male, Sprague Dawley, rat, plasma, po, 10 mg tapentadol free base equiv/kg, oral tapentadol valine carbamate 10 mg tapentadol free base equiv/kg, individual animals 6-10, read-out: AUCt of tapentadol valine carbamate)?
Its AUC(0-t) is 560 ng·h/mL.

What about the Cmax (male, Sprague Dawley, rat, plasma, po, 10 mg tapentadol free base equiv/kg, oral tapentadol valine carbamate 10 mg tapentadol free base equiv/kg, individual animals 6-10, read-out: Cmax of tapentadol valine carbamate) of the same molecule?
Its Cmax is 85.8 ng/mL.

What about the half-life (male, Sprague Dawley, rat, plasma, po, 10 mg tapentadol free base equiv/kg, oral tapentadol valine carbamate 10 mg tapentadol free base equiv/kg, individual animals 6-10, read-out: t½ of tapentadol valine carbamate (converted)) of the same molecule?
Its half-life is 4.08 h.

And the AUC(0-t) (male, Sprague Dawley, rat, plasma, po, 10 mg tapentadol free base equiv/kg, oral tapentadol valine carbamate 10 mg tapentadol free base equiv/kg, mean, read-out: AUCt of tapentadol valine carbamate)?
The AUC(0-t) was 567 ng·h/mL.

What about the Cmax (male, Sprague Dawley, rat, plasma, po, 10 mg tapentadol free base equiv/kg, oral tapentadol valine carbamate 10 mg tapentadol free base equiv/kg, mean, read-out: Cmax of tapentadol valine carbamate) of the same molecule?
Its Cmax is 93.9 ng/mL.

And the Tmax (male, Sprague Dawley, rat, plasma, po, 10 mg tapentadol free base equiv/kg, oral tapentadol valine carbamate 10 mg tapentadol free base equiv/kg, median, read-out: Tmax of tapentadol valine carbamate)?
Its Tmax is 1 h.
